Data as given in US12378193B2, “Anti-arrhythmicity agents” (The Regents of the University of California, priority 2014, dated 2025).
Entries after “also recorded” stand apart in the source; their conditions may differ.

Assays:
[1] = system: zebrafish tremblor (tre) embryos; assay: Cardiac performance (line-scan fractional shortening, heart rate) of tremblor embryos; type: in vivo
Experimental: (§1) Movies of GFP-labelled myl7:GFP hearts were taken at 30 frames per second. Line-scan analysis was performed along a line through the atria or the ventricles of these hearts (Nguyen et al., 2009, Drug Discovery Today: Disease Models 5). Fraction of shortening was deduced from the ratio of diastolic and systolic width and heart rate was determined by beats per minute. Cardiac parameters were analyzed in tremblor^tc318 and VDAC2^LA2256 at 2 dpf.

[2] = system: wild type zebrafish embryos; assay: Cardiac performance (line-scan fractional shortening, heart rate) of wild type embryos; type: in vivo
Experimental: as §1

[3] = system: zebrafish tremblor (tre) embryos; assay: Restoration of coordinated cardiac contractions in tre embryos; type: in vivo
Experimental: VDAC2 mRNA and morpholino antisense oligos (5′-[…]-3′) (Genetools) (SEQ ID NO: 9) were injected into one-cell stage embryos collected from crosses of tre^tc318 heterozygotes. Cardiac performance was analyzed by visual inspection on 1 dpf. The tre mutant embryos were identified either by observing the fibrillation phenotype at 2-3 dpf or by genotyping as previously described (Langenbacher et al., 2005).
Chemicals from a synthetic library (Castellano et al., 2007, J Am Chem Soc 129, 5843-5845; Choi et al., 2011, Development 138, 1173-1181; Cruz et al., 2011, Proc Natl Acad Sci USA 108, 6769-6774) and from Biomol International LP were screened for their ability to partially or completely restore persistent heartbeat in tre embryos. 12 embryos collected from crosses of tre^tc318 heterozygotes were raised in the presence of individual compounds at a concentration of 10 μM from 4 hpf (Choi et al., 2011). Cardiac function was analyzed by visual inspection at 1 and 2 dpf. The hearts of tre^tc318 embryos manifest a chaotic movement resembling cardiac fibrillation with intermittent contractions in rare occasion (Ebert et al., 2005; Langenbacher et al., 2005). Compounds that elicit persistent coordinated cardiac contractions were validated on large number of tre mutant embryos and NCX1h morphants (>500 embryos).

[4] = system: mouse embryonic stem cell-derived cardiomyocytes (mESC-CMs); assay: Ca2+ overload-induced irregular Ca2+ transients and contractions in mESC-CMs; type: cell-based; conditions: 10 mM Ca2+ext + 10 μM efsevin
Experimental: The mouse E14Tg2a ESC and human H9 ESC line were cultured and differentiated as previously described (Blin et al., 2010, J Clin Invest 120, 1125-1139; Arshi et al., 2013, Sci Technol Adv Mater 2013, 025003). At day 10 of differentiation, beating mouse EBs were exposed to external solution containing 10 mM CaCl2 for 10 minutes before DMSO or efsevin (10 μM) treatment. Human EBs were differentiated for 15 days and treated with 5 mM CaCl2) for 10 minutes before DMSO or efsevin (5 μM) treatment. Images of beating EBs were acquired at a rate of 30 frames/sec and analyzed by motion-detection software. For calcium recording, the EBs were loaded with 10 μM fluo-4 AM in culture media for 30 minutes at 37° C. Line-scan analysis was performed and fluorescent signals were acquired by a Zeiss LSM510 confocal microscope.

[5] = system: murine ventricular cardiomyocytes; assay: Ca2+ imaging (transients, sparks, waves) in isolated cardiomyocytes; type: cell-based
Experimental: Murine ventricular cardiomyocytes were isolated as previously described (Reuter et al., 2004, J Physiol 554, 779-789). Cells were loaded with 5 μM fluo-4 AM in external solution containing: 138.2 mM NaCl, 4.6 mM KCl, 1.2 mM MgCl, 15 mM glucose, 20 mM HEPES for 1 hr and imaged in external solution supplemented with 2, 5 or 10 mM CaCl2). For the recording of Ca^2+ sparks and transients, the external solution contained 2 mM CaCl2. For Ca^2+ transients, cells were field stimulated at 0.5 Hz with a 5 ms pulse at a voltage of 20% above contraction threshold. For all measurements, efsevin was added 2 hours prior to the actual experiment. Images were recorded on a Zeiss LSM 5 Pascal confocal microscope. Data analysis was carried out using the Zeiss LSM Image Browser and ImageJ with the SparkMaster plugin (Picht et al., 2007, Am J Physiol Cell Physiol 293, C1073-1081). Cells were visually inspected prior to and after each recording. Only those recordings from healthy looking cells with distinct borders, uniform striations and no membrane blebs or granularity were included in the analysis.

[6] = paced at 0.5 Hz, % of vehicle-treated

SMILES: CCOC(=O)C1=CCN(S(=O)(=O)c2ccc(C)cc2)C1c1ccccc1 (centres unmarked) [efsevin]
- heart rate ([1]; efsevin-treated tre embryos): 46±2 beats per minute (bpm)
- heart rate restored, relative to wild-type/controls ([1]; efsevin-treated tre embryos, 2 dpf, % of wild-type heart rate): approximately 40%
- Atrial FS ([1]; tre + efsevin, 48 hpf): 33±2%
- Ventricular FS ([1]; tre + efsevin, 48 hpf): 35±3%
- cardiac performance of wild-type embryos ([2]; efsevin-treated wild-type embryo, 2 dpf): did not affect cardiac performance
- heart rate ([2]; efsevin-treated wild-type embryos): 123±3 bpm
- Atrial FS ([2]; wild type + efsevin, 48 hpf): 35±2%
- Ventricular FS ([2]; wild type + efsevin, 48 hpf): 39±1%
- embryos with coordinated cardiac contractions ([3]; efsevin treated tre embryos): 71.2±8.8%
- embryos with coordinated contractions ([3]; efsevin treated tre embryos, VDAC1/2 knocked down simultaneously): 30.3±6.3%
- embryos with coordinated contractions ([3]; efsevin treated tre embryos, morpholino knockdown of VDAC1 (MO^VDAC1)): 46.9±10.7%
- embryos with coordinated contractions ([3]; efsevin treated tre embryos, morpholino knockdown of VDAC2 (MO^VDAC2)): 45.3±7.4%
- restoration of rhythmic contractions in tremblor embryos ([3]; tremblor embryos): restored rhythmic contractions in the majority of tremblor embryos
- rhythmic Ca2+ transients and contractions under Ca2+ overload [4]: restored rhythmic Ca2+ transients and cardiac contractions; also recorded: restores regular Ca^2+ transients
- spontaneous Ca2+ waves spanning more than half of the entire cell ([5]; 1 μM efsevin): approximately half
- spontaneous Ca2+ waves spanning more than half of the entire cell ([5]; 10 μM efsevin): further reduced
- spontaneous Ca2+ waves spanning more than half of the entire cell ([5]; 25 μM efsevin): almost entirely blocked
- decay phase of the single spark ([5]; % of vehicle-treated): 82.5±2.1%
- maximum spark amplitude ([5]; % of vehicle-treated): 101.6±2.5%
- total duration of the spark ([5]; % of vehicle-treated): 85.7±2%
- total width of the spark ([5]; % of vehicle-treated): 89.5±1.4%
- Ca2+ spark frequency ([5]; efsevin compared to vehicle-treated): 101.1±7.7%
- Ca2+ transient rate of decay [5, 6]: 82.8±4%
- Ca2+ transient time to peak [5, 6]: 95±3.9%
- Ca2+ transient amplitude ([5]; paced at 0.5 Hz, efsevin-treated as % of vehicle-treated): 98.6±4.5%
- Ca2+ release flux ([5]; sparks, % of vehicle-treated): 98.7±2.8%
